Laboratory results from US7329652B2, “Diaminotriazole compounds useful as protein kinase inhibitors” (Vertex Pharamaceuticals Incorporated, priority 2004, dated 2008).

How the values were obtained:
[1] = biological target: JAK-2 enzyme (Homo sapiens, UniProt O60674); experiment: JAK2 inhibition assay (radiometric 33P filter assay); format: biochemical; conditions: 15 μM poly(Glu)4Tyr, 12 μM ATP; read-out: JAK2 inhibition data (Ki)
Method in brief: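 JAK-2 enzyme in 100 mM HEPES pH 7.4, 1 mM DTT, 10 mM MgCl2, 25 mM NaCl, 0.01% BSA, with final 12 μM [33P]ATP and 15 μM poly(Glu)4Tyr. Reactions ran 20 min at 25 °C and were stopped with TCA. 33P incorporation was counted after glass-fibre filtration.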

[2] = biological target: T1, JAK3 (Homo sapiens, UniProt P52333); experiment: JAK3 inhibition assay (radiometric 33P filter assay); format: biochemical; conditions: 1 μM poly(Glu)4Tyr, 5 μM ATP, 1 nM JAK3, 25° C.; read-out: JAK3 inhibition data (Ki)
T1 sequence (P52333 1-1124): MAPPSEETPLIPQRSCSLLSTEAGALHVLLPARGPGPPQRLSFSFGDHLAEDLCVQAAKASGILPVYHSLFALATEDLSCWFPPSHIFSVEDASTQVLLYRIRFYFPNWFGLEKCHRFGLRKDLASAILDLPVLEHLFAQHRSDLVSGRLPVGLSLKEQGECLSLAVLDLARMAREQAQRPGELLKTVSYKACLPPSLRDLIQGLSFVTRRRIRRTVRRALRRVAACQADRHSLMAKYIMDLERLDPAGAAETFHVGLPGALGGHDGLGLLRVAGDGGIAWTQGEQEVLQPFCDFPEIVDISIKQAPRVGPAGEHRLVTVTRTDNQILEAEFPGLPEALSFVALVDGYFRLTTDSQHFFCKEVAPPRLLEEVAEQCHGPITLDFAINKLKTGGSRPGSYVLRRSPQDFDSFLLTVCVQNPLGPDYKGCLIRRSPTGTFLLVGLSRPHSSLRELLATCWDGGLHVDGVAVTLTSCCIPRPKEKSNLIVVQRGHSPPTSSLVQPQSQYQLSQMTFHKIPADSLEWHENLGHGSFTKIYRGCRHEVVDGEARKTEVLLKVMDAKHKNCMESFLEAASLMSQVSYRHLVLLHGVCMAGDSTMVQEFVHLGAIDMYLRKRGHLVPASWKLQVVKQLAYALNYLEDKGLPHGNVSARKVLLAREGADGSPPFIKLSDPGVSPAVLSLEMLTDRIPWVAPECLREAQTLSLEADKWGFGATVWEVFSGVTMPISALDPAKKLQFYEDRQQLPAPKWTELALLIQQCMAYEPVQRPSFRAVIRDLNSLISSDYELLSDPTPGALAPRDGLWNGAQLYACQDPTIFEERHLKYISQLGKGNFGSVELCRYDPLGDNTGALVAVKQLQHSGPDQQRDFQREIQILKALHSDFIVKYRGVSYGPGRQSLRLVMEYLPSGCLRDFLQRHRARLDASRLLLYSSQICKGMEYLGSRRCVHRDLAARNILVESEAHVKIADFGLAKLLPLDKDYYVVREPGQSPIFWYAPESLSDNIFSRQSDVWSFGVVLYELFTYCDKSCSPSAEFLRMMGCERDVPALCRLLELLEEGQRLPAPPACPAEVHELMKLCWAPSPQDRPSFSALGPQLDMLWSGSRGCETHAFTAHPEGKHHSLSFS
Method in brief: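 Final conditions were 1 nM JAK3, 5 μM ATP (200 uCi/μmole) and 1 μM poly(Glu)4Tyr in 100 mM HEPES pH 7.4, 10 mM MgCl2, 25 mM NaCl, 1 mM DTT and 0.01% BSA. After 20 min at 25 °C the reaction was stopped with TCA. 33P incorporation was counted after glass-fibre filtration.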

JAK-2 enzyme, sequence (O60674 whole entry, species assumed): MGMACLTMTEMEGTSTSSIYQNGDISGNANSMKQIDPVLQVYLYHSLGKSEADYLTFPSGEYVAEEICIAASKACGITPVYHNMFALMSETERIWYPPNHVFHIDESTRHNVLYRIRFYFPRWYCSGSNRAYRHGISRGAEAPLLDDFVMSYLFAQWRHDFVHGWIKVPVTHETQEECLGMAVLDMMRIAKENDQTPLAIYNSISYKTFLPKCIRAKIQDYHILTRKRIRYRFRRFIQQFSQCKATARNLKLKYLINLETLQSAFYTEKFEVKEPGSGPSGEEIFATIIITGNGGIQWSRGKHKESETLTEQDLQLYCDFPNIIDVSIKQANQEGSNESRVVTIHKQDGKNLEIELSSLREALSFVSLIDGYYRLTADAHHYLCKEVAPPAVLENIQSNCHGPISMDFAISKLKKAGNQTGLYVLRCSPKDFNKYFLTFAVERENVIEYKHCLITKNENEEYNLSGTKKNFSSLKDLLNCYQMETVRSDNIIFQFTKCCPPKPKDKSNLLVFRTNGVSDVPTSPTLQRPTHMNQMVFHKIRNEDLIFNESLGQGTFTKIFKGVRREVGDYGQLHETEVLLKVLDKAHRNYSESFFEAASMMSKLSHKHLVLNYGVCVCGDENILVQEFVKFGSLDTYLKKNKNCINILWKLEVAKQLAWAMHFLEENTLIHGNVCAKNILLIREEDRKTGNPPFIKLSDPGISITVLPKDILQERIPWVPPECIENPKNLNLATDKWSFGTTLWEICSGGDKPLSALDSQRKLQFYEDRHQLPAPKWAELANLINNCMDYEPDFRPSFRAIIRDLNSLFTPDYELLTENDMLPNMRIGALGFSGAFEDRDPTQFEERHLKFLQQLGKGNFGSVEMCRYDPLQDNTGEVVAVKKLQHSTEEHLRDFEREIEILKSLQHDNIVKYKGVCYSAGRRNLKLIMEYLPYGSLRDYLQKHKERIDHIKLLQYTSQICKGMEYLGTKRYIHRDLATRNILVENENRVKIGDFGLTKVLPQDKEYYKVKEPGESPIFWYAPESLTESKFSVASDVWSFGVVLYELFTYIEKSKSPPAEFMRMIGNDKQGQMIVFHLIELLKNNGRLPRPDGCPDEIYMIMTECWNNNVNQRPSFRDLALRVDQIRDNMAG

Row | SMILES | Ki [1] | Ki [2]
1 | CC(C)(C)OC(=O)Nc1ccc(Nc2nc(N)n(-c3cc(N4CCCN(C(=O)CC#N)CC4)ncn3)n2)cc1 [Compound 136] | < 50 nM | < 50 nM
2 | CC(=O)N1CCCN(c2cc(-n3nc(Nc4ccc(N5CCOCC5)cc4)nc3N)ncn2)CC1 [Compound 2] | < 50 nM | < 50 nM
3 | Nc1nc(Nc2ccc(N3CCOCC3)cc2)nn1-c1cc(N2CCNC(=O)CC2)ncn1 [Compound 3] | < 50 nM | < 50 nM
4 | CCOC(=O)CCNC(=O)N1CCN(c2ccc(Nc3nc(N)n(-c4cc(N5C[C@@H](C)N(C(C)=O)[C@@H](C)C5)ncn4)n3)cc2)CC1 [Compound 65] | < 50 nM | < 50 nM
5 | CC(=O)N1CCCN(c2cc(-n3nc(Nc4ccc(N5CCNCC5)cc4)nc3N)ncn2)CC1 [Compound 42] | < 50 nM | < 50 nM
